pIC50: −log10 of the molar value. Like-named read-outs stand apart in the source and are kept apart here.
Key:
[1] = test system: plasma lipids; assay: Plasma lipids in cholesterol-fed rats after oral PLA2 inhibitor; format: in vivo; details: 100 mg/kg oral gavage, about 8 hours after start of feeding
Protocol: Ultimately, agents that inhibit the absorption of dietary cholesterol should suppress postprandial increases in plasma cholesterol. This was tested with several. PLA2 inhibitors in cholesterol-fed rats. The general protocol consisted of preparing a carboxymethyl cellulose/Tween 20 dispersion of the compound of interest and administering it at a dose of 100 mg/kg by oral gavage to rats previously trained to meal-feed. Immediately following administration of the inhibitor, the rats were fed a lipid-rich meal of chow supplemented with cholesterol, peanut oil, and cholic acid.

[2] = target: T1, porcine pancreatic PLA2 (Sus scrofa, UniProt P00592); assay: Fluorescence assay of porcine pancreatic PLA2 inhibition in vitro; format: biochemical
T1 construct: purchased Sigma Chemical Company (St. Louis, Mo.); host or cells: porcine pancreas
Description: The IC50 values for inhibition of porcine pancreatic PLA2, in vitro, are included for comparison with the in vivo activities.
A sensitive fluorescence method was used to measure the activity of pancreatic phospholipase A2 (PLA2) in vitro. PLA2 hydrolyzes the ester bond linking fatty acids to the sn-2 position in glycerophospholipids. Several types of PLA2 exist, including those isolated from venoms, synovial fluid, platelets, immunoactive cell types and the pancreas. The pancreatic PLA2 was the subject of this experiment because of its fundamental role in promoting lipid absorption in the intestine.
PLA2 activity was detected by the loss of pyrene excimer fluorescence that occurs when (1-pyrenyl)decanoic acid is hydrolysed from the sn-2 position of 1,2-bis-(1-pyrenedecanoyl)sn-glycero-3-phosphocholine ((P10)2 PC) by the action of PLA2. The use of similar pyrene-labeled PC substrates to detect PLA2 activity has been described previously (Radvanyi F., Jordan L., Russo-Marie F., Bon C., "A sensitive and continuous fluorometric assay for phospholipase A2 using pyrene-labeled phospholipids in the presence of serum albumin." Anal. Biochem., 177:103-109 (1989)). The full photophysical basis for the assay is described elsewhere (Birks J. B., "Photophysics of Aromatic Molecules," Wiley Interscience, New York, pp 301-371 (1970)).
In brief, pyrene excimers are formed by the complexation of one pyrene moiety in the ground-state with one pyrene moiety in the excited state to form an excited-state dimer (excimer) which fluoresces at longer wavelengths (475 nm emission maximum) than the wavelength range in which excited-state pyrene monomers fluoresce (370-400 nm). Excimer formation is dependent on the concentration of pyrene moieties. (P10)2 PC emits excimer fluorescence almost exclusively due to the fixed juxtaposition of the pyrene chromophores. The substrate concentration is sufficiently dilute so that excimer formation between the products of PLA2 action, namely lysoPY10PC and the (1-pyrenyl)decanoic acid, is insignificant.
In general, this assay scheme should have been applicable to the study of any type of PLA2. However, since pancreatic PLA2 is unique from the other PLA2 's in that it operates almost exclusively against micellized PC, the PC substrate in this assay was micellized with 1 mM deoxycholic acid. The PC component of the micelles consisted of 5 μM (P10)2 PC substrate diluted with a 99-fold excess (495 μM) of 1-oleyl-2-palmityl phosphatidylcholine (OPPC). The OPPC was inert to PLA2 hydrolysis because it contained ether-linked fatty alkyl chains in place of the ester-linked fatty acyl chains of normal PC. OPPC was included to 1) dilute the micellar (P10)2 PC concentration thereby minimizing intermolecular excimer formation, and 2) preserve the integrity of the micelles against the action of PLA2 since nonspecific micelle disruption could lead to nonlinear kinetics and fluorescence changes independent of lipolysis.
Phospholipase A2 (porcine pancreas), bovine serum albumin (BSA) (fraction V, essentially fatty acid-free) and sodium deoxycholate were obtained from Sigma Chemical Company, (St. Louis, Mo.). 1-Oleyl-2-palmityl-DL-phosphatidylcholine (OPPC) was ordered from Serdary Research Laboratories, Inc. (London, Ont., Canada). 1,2-Bis-(1-pyrenedecanoyl)-sn-glycero-3-phosphatidylcholine ((P10)2 PC) was obtained from Molecular Probes, Inc. (Eugene, Oreg.).
HEPES buffer (SHE) contained 150 mM NaCl, 20 mM HEPES (N-[2-hydroxyethyl]piperazine-N'-[2-ethanesulfonic acid]) and 1 mM EDTA (ethylenediamine tetraacetic acid) at pH 8.0.
1 mM (P10)2 PC in chloroform was prepared by adding 1 mL chloroform to a vial containing 1 mg of (P10)2 PC, as shipped by Molecular Probes. The actual concentration was determined spectrophotometrically by diluting 10 μL of the chloroform solution in 2 mL of ethanol. The absorbance spectrum of the ethanol solution was measured between 380 nm to 280 nm (Beckman DU-64). […]

[3] = test system: PLA2; details: methyl-phosphatidic acid substrate; Jain et al. 1992; read-out: IC50 in "scooting-mode" assay; cited from earlier work
[4] = test system: intestinal lipid absorption; assay: Lymph-fistula rats, diester and diether PC analogs; format: in vivo, rat
Description: The intestinal lipid absorption pathway was isolated in the rat by inserting an infusion cannula in the proximal duodenum and implanting a second cannula in the mesenteric lymph vessel to intercept the lipoprotein output from the intestine. This lymph-fistula rat model was used to investigate the effect of pancreatic PLA2 inhibition, in situ, on intestinal absorption of infused lipid emulsions. In a typical experiment, cannulae were implanted the day before the experimental infusion. Following surgery, the animals were infused (2.5 mL/hr) with isotonic saline containing dextrose to flush the GI tract and obtain basal levels of lymphatic lipid output. On the day of the experiment, infusion of the dextrose recovery solution was continued for 1 hour to collect a basal lymph fraction. At the start of the next hour, the intake of the duodenal infusion cannula was switched to a lipid emulsion of isotonic saline containing safflower oil (59 mM), cholesterol (5.2 mM), PC (3.3 mM) and taurocholic acid (1.9 mM). One hour lymph fractions were collected until the end of the experiment. The lipid content (mass) of lymph fractions was determined by HPLC with a mass-sensitive, evaporative light-scattering detector.
PC analogs in which the normal acyl chains are replaced by alkyl carbon chains linked to the glycerol backbone by ether bonds have physical-chemical properties similar to conventional diester PC molecules but are not hydrolyzable by PLA2. To determine the significance of micellar PC hydrolysis in intestinal lipid absorption, a comparison was made of the mesenteric lymph lipid output from rats infused with lipid microemulsions prepared with 1,2-dipalmitoyl PC (DPPC(ester)) or 1,2-dipalmityl PC (DPPC(ether)) as the PC constituent. […] The total lymphatic CE output over the 12-hour period of DPPC(ether) infusion was only 47% of total CE output obtained with the DPPC(ester) emulsion.

[5] = test system: Caco-2 cells; assay: Caco-2 lipid absorption versus micellar phospholipid composition; format: cell-based, human
Protocol: Caco-2 cells were used as a tissue culture model of the human intestinal epithelium to compare the effects of phosphatidylcholine and lysophosphatidylcholine on lipid absorption and the subsequent re-esterification and secretion of micelle-derived lipids.
Caco-2 cell monolayers, grown on micropore membranes separating apical and basolateral culture solutions, were incubated with taurocholate, mixed-lipid micelles composed of 5 mM taurocholic acid, 300 μM monooleoylglycerol, 500 μM [^3 H]oleic acid, 100 μM [^14 C]cholesterol, and 200 μM phospholipid consisting of various proportions of 1-palmitoyl-2-oleoyl phosphatidylcholine and 1-palmitoyl lysophosphatidylcholine. The micelles were added to the apical side of the cell monolayers. Phospholipid-free micelles were also tested for comparison. At the end of 6 hours of incubation, the radiolabeled lipid content of the cells and in the basolateral media were determined. Phospholipid content strongly influenced the absorption and metabolism of cholesterol (FIGS. 1, 2) but had only minimal effects on fatty acid uptake and metabolism (FIG. 3). Caco-2 monolayers incubated with micelles containing only phosphatidylcholine as the phospholipid absorbed 65% less [^14 C]cholesterol than cell monolayers incubated with phospholipid-free micelles.

[6] = test system: Caco-2 cells; assay: Caco-2 phospholipase A2-dependent cholesterol absorption, time course; format: cell-based, human
[7] = test system: cholesterol absorption; details: Rampone and Long 1977; cited from earlier work
[8] = test system: serum cholesterol; details: neomycin 1.5-2 g/day; β-sitosterol 3-50 g/day; cited from earlier work
[9] = porcine pancreatic PLA2, in vitro, read-out: In Vitro IC50 (porc. panc. PLA2)

T1 sequence (P00592 23-146): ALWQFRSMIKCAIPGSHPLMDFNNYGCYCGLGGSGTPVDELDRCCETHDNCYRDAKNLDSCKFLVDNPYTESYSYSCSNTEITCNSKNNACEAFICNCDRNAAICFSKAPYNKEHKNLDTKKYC

pIC50 [2, 9]	Compound	% Change in plasma lipids vs. Control: HDL Chol. [1] [%]	% Change in plasma lipids vs. Control: TG [1] [%]	% Change in plasma lipids vs. Control: Total Chol. [1] [%]	% Change in plasma lipids vs. Control: non-HDL Chol. [1] [%]	other results
5.07	Cc1ccc(Nc2cccc(Cl)c2)c(/C=C/C(=O)O)c1 [Compound F, 2-(M-chloroanilino)-5-methyl-trans-cinnamic acid]	2	-5	-15	-20	–
–	CCCCCCCCCCCCCCCCOCC(COP(=O)([O-])OCC[N+](C)(C)C)OCCCCCCCCCCCCCCCC (stereo not drawn) [nonhydrolyzable phospatidylcholine]	–	–	–	–	absorption of lipids into cells (figure legend) ([4]; FIG. 9, nonhydrolyzable phosphatidylcholine): prevents absorption of lipids into cells
–	CCCCCCCCCCCCCCCCOCC(COP(=O)([O-])OCC[N+](C)(C)C)OCCCCCCCCCCCCCCCC (stereo not drawn) [DPPC(ether), 1,2-dipalmityl PC]	–	–	–	–	total lymphatic CE output relative to DPPC(ester) ([4]; 12-hour infusion): 47%; time until lymphatic cholesteryl ester output rose above basal ([4]; after initiation of lipid emulsion infusion): 8 h; onset of rise in lymphatic TG and PC output ([4]; following initiation of lipid infusion): not delayed; total lymphatic PC output relative to DPPC(ester) ([4]; infusion of lipid emulsion): 75%; total lymphatic TG output relative to DPPC(ester) ([4]; infusion of lipid emulsion): 71%
5.34	Cc1ccc(Nc2ccccc2F)c(/C=C/C(=O)O)c1 [Compound G, 2-(O-fluoroanilino)-5-methyl-trans-cinnamic acid]	15	-24	-12	-21	–
–	CCCCCCCCCCCCCCCC(=O)OCC(O)COP(=O)([O-])OCC[N+](C)(C)C (stereo not drawn) [lysophosphatidylcholine, 1-palmitoyl lysophosphatidylcholine]	–	–	–	–	reversal of PC effect on cholesterol absorption ([5]; 6 hours, lysophosphatidylcholine substituted for phosphatidylcholine): reversed this effect, but only when the mole fraction of micellar lysophosphatidylcholine was greater than 50%; [3H]oleate-labeled PC synthesis relative to phospholipid-free micelles [6]: slight decrease; inhibition of cholesterol absorption by intestinal segments [7]: no inhibition
–	Neomycin	–	–	–	–	reductions in serum cholesterol levels [8]: up to 25%
–	CCCCCCCC/C=C\CCCCCCCC(=O)OC(COC(=O)CCCCCCCCCCCCCCC)COP(=O)([O-])OCC[N+](C)(C)C (stereo not drawn) [phosphatidylcholine, 1-palmitoyl-2-oleoyl phosphatidylcholine]	–	–	–	–	esterification of micellar [14C]cholesterol ([5]; FIG. 1C, micelles with 50% or more of choline lipid as PC): reduced to an even greater extent; inhibition at 200 µM ([5]; Homo sapiens, Caco-2, 6 h, read-out: [14C]cholesterol absorbed, reduction vs. phospholipid-free micelles): 65%; ACAT activity in cells ([5]; PC-containing micelles): diminished
5.24	1-[4,4-bis(4-fluorophenyl)butyl]-3-(3-methoxyphenyl)-3-methyl-pyrrolidine [Compound C]	38	–	-30	-49	–
5.66	CCCCCCC(c1ccc(O)c(C)c1)c1ccc(O)c(C)c1 [Compound A, 4,4'-heptylidenebis-2-methyl-phenol]	1	-11	-24	-32	–

Compound	pIC50 [2, 9]	% Change in plasma lipids vs. Control: HDL Chol. [1] [%]	% Change in plasma lipids vs. Control: TG [1] [%]	% Change in plasma lipids vs. Control: Total Chol. [1] [%]	% Change in plasma lipids vs. Control: non-HDL Chol. [1] [%]	other results
CCCCCCCC/C=C\CCCCCCCC(N)=O [Compound E, (Z)-9-octadecen-amide, reference compound]	5.62	2	-35	-42	-56	pIC50 ([2]; FIG. 12, (P10)2 PC substrate, read-out: IC50 in the fluorescence assay): 5.52; pIC50 [3]: 7.00

From US5578639A, “PLA2 inhibitors and their use for inhibition of intestinal cholesterol absorption” (Warner-Lambert Company, priority 1995, dated 1996)
